The source of these data is patent US20140182011A1, “Methods Using Acyl-Coenzyme A-Binding Proteins to Enchance Drought Tolerance in Genetically Modified Plants” (The University of Hong Kong, priority 2011, published 2014).

One assay has as its system ACBP2. In words: qRT-PCR of ACBP2 expression after ABA treatment. The assay is classed as in vivo, Arabidopsis. Particulars: 12-day-old seedlings, ABA (100 µM), continuous white light. As to the method: TRIzol® reagent was also used for RNA extraction of 12-day-old Arabidopsis seedlings subject to treatment by 100 μM ABA or drought for the various times (0, 1, 3, 6 and 24 h) under continuous white light. First-strand was synthesized using the Superscript First-Strand Synthesis System (Invitrogen). QRT-PCR was performed using StepOne Plus (Applied Biosystems) and FastStart Universal SYBR Green Master (Roche). Transcript changes were analyzed according to Schmittgen and Livak (Nat. Protoc. 3:1101-1108 (2008) from three independent experiments.
To determine the effect of ABA treatment on ACBP2 expression, the expression of ACBP2 was examined by Real-time quantitative PCR (qRT-PCR) using primers ML1122 and ML1123 (SEQ ID NOs: 1 and 2) in 12-day-old seedlings before and after ABA treatment under continuous white light. qRT-PCR was performed using StepOne Plus (Applied Biosystems) and FastStart Universal SYBR Green Master (Roche). Transcript changes were analyzed according to Schmittgen and Livak (Nat. Protoc. 3: 1101-1108 (2008) from three independent experiments.

The test system of the next assay is Arabidopsis seeds. In words: Seed germination with ABA treatment. The class given is in vivo. The protocol:
To test ABA sensitivity at germination, over 200 seeds per experiment were sown on MS medium in the presence or absence of […] (Sigma-Aldrich, St Louis, Mo., USA). After 2 d at 4° C., seeds were germinated and grown under 16-hour-light (23° C.)/8-hour-dark (21° C.) cycles. Germination was examined daily with a microscope (Leica MZ6; Leica, Solms, Germany), and seedlings were photographed after 7 d. For post-germination growth assays, seeds were germinated on MS medium for 4 d, followed by transfer to MS medium or MS medium supplemented with […] for 7 d before photography and root measurements.

A further assay concerns ACBP2pro:GUS. In words: Histochemical GUS assay during germination. The assay is classed as in vivo, Arabidopsis. The conditions noted are these: ABA treatment. As to the method:
Histochemical GUS assays were carried out using 5 bromo-4-chloro-3-indolyl-b-D-glucuronide (X-Glue) according to Liu et al., Plant Cell, 16: 5-20 (2004). Plant samples were immersed and vacuum filtrated in the GUS staining solution for 30 min (100 mM sodium phosphate buffer, pH 7.0, 0.1% Triton X-100, 2 mM potassium ferricyanide, 2 mM potassium ferrocyanide, 1 mg/mL 5 bromo-4-chloro-3-indolyl-β-D-glucuronide), incubated and observed over a period ranging from 3 to 16 h at 37° C. Subsequently, samples were cleared in 70% ethanol and photographed.

For `CC1=CC(=O)CC(C)(C)[C@@]1(O)/C=C/C(C)=C\C(=O)O` [ABA, Abscisic acid], the “ACBP2 expression (qRT-PCR)” value in the assay with ACBP2 was “significant induction”. Also, the seed germination result in the assay on Arabidopsis seeds is listed as “suppressed germination”. In the assay with ACBP2pro:GUS, the “GUS expression as germination progressed” value is listed as “retained GUS expression”.
